Assay [1] can be described thus: Hemodynamic measurements in anesthetized rats (LVSP, dP/dt, MABP, HR). The format is in vivo, Wistar rats. The procedure:
Hemodynamic measurements were carried out in male Wistar rats weighting 300˜350 g, anesthetized with pentobarbital sodium (40 mg kg^−1, i.p.). In brief, polyethylene tubing (PE50) was placed in the trachea to keep the airway patent, and rats continued to breathe spontaneously. Subsequently, rats were used to record hemodynamic and cardiovascular function. Vascular catheters (PE50) were placed in the femoral arteries to measure mean arterial blood pressure (MABP) and heart rate (HR). Changes of MABP and HR caused by KMUP-3 or KMUP-3 amine salt were recorded from the femoral artery with a pressure transducer (Gould, Model P50, U.S.A.), connected with a Pressure Processor Amplifier (Gould, Model 13-4615-52, U.S.A.). A femoral vein was used for intravenous administration of KMUP-3 or KMUP-3 amine salt. A specialized transducer tip catheter was placed in the right carotid artery and advanced into the left ventricle of the heart for measurement of left ventricular pressure (LVSP) or contractility; dP/dt at 50 mm Hg, an index of cardiac contractility, was derived from the left ventricular pressure trace; post-hoc vascular resistance was calculated as mean arterial blood pressure/peripheral cardiac output (MABP/PCO). Body temperature was monitored throughout the experiment and maintained between 37 and 37.5° C. by using a heating pad.
Each dose of active drugs was administered as a 20-min infusion in a series of escalating doses dissolved in a 5% dextrose water vehicle. […] KMUP-3 HCl or KMUP-3 amine salt were infused at 0.03, 0.05, and 0.075 μg/kg/20 min for the measurement of FABP, intraperitoneally injected at 0.03, 0.05 and 0.1 mg/kg for the measurement of MABP and HR and infused by intravenous injection for 2 min at 0.5, 1.0, 3.0 mg/kg dissolved in 5% dextrose water vehicle (2 ml) for the measurement of LV systolic pressure (LVSH), ABP, dP/dt, and HR. The primary hemodynamic variables were computed using commercial software and a signal processing workstation. Animals were randomly divided into one of six treatment or vehicle groups. After the completion of the surgical protocol, animals were allowed to stabilize for 1 h, and baseline data were collected at 5-min intervals for 30 min before the treatment.

The next assay relates to PKCα. The assay can be described thus: PKCα translocation of beating left atrium. To be noted: KMUP-3 1 μM, left atrium cells. Type of assay: cell-based, guinea-pig. The procedure:
To determine the effect of KMUP-3 or KMUP-3 amine salt on PKCa translocation, isolated left beating atrium was incubated with KMUP-3 or KMUP-3 amine salt for 30 minutes (0.1-10 μM). In brief, frozen left atrium was pulverized to a fine powder at the temperature of liquid nitrogen for preparation of cytosolic and membrane fractions. Isolated left atrium tissues were then homogenized by a sonicator (XL-2020, Heat Systems Ultrasonic, Plainview, N.Y., USA) at 4 in 1 ml of homogenization buffer containing 20 mM Tris-HCl (pH 7.5), 1 mM dithiothreitol (DTT), 5 mM EGTA, 2 mM EDTA, 0.5 mM PMSF, 20 μM leupeptin and 20 μM aprotinin. The cytosol fractions were obtained by collecting the supernatants after centrifuging the cells at 100,000×g for 45 minutes at 4. The pellets were resonicated in the homogenizing buffer with 1% Triton X-100, centrifuged again at 100,000×g for 45 minutes at 4, and the supernatants collected as membrane fractions. The extracts for cytosol and membrane fractions were denatured by heating at for 10 minutes in sampling buffer, and an aliquot containing 20 μg of total protein was subjected to a 10% SDS-polyacrylamide gel electrophoresis. […] Protein was detected with horseradish peroxidase (HRP) conjugated secondary antibody (BD Transduction Laboratories). […] The immunoreactive bands were detected by chemiluminescence (ECL) reagents (PerkinElmer Life Sciences, Inc).

Another assay deals with eNOS. The assay can be described thus: eNOS expression in neonatal myocytes, Western blotting. Type of assay: cell-based, rat. To be noted: neonatal rat cardiomyocytes. The procedure: (§1) eNOS/p-NOS and cAMP/cGMP in neonatal myocytes. To determine the role of the NO/cGMP-pathway in heart, neonatal rat myocyte protein was extracted followed by Western blotting to measure the expression of eNOS, phosphorylated eNOS (p-eNOS), cAMP, and cGMP (FIG. 14 A-14 B and FIG. 15 A-15 B). KMUP-3 increased eNOS and p-eNOS in neonatal rat cardiomyocytes and the effect was reduced by L-NAME (100 μM)-pretreatment (FIG. 14A and FIG. 14B). KMUP-3 increased both cAMP and cGMP.
(§2) Protein extraction and Western blotting analysis. Briefly, after incubation with test agents in an organ bath, isolated beating atrium was frozen and pulverized to a fine powder at the temperature of liquid nitrogen. Atrium powders were then homogenized in protein extraction reagent (Pierce Biotechnology, Inc., Rockford, Ill.) by sonication. The samples were sonicated 10 sec three times and centrifuged at 13,000 rpm at 4° C. for 30 min. The protein concentrations of supernatants were determined by using bovine serum albumin as the standard. […] The intensity of the bands was measured by densitometry. eNOS or phosphorylated eNOS were extracted from cell culture of neonatal myocytes, PA ring and aortic ring (2-3 mm) of rats and measured by Western blotting analysis.

Assay [2] has as its system phosphorylated eNOS (p-eNOS). Nature of the assay: Phosphorylated eNOS expression in neonatal myocytes, Western blotting. Type of assay: cell-based, rat. To be noted: neonatal rat cardiomyocytes. The procedure:
as §1, §2

In the next assay the test system is cAMP. Nature of the assay: cAMP in neonatal myocytes. Type of assay: cell-based, rat. The protocol: as §1
In another assay the test system is L-type Ca2+ channels. Nature of the assay: Ca2+ entry currents in H9c2 cells, whole cell patch-clamp. To be noted: H9c2 cells, KMUP-3 1-100 μM. The format is cell-based, rat.
[3] abbreviates: anesthetized rats, intravenous injection 0.5-3 mg/kg within 2 min.
Setting [4] is: intra-peritoneal injection 0.03-0.1 mg/kg.
The mark [5] stands for this setting: intravenous perfusion 0.03-0.075 μg/kg/min×20 min.

This note sets out measurements from patent publication US20120321584A1, “PROCESSES FOR PREPARING AMINE SALTS OF KMUP-3 AND USE THEREOF” (KAOHSIUNG MEDICAL UNIVERSITY, priority 2011, published 2012).

From the text for L-type Ca2+ channels: To measure the ICa through L-type Ca^2+ channels, whole cell patch-clamp electrophysiology was used in rat heart-derived H9c2 cells as previously described. In brief, H9c2 cells were placed in a recording dish and perfused with a bath solution containing (in mM): 135 tetraethylammonium (TEA)-Cl, 1.8 CaCl2, 2 MgCl2, 10 glucose, and 10 HEPES (pH 7.4, Tris). […] Negative pressure was briefly applied to rupture the membrane and a gigaohm seal was obtained.
H9c2 cells were clamped at −80 mV with step depolarizations (300 ms) from −80 to 0 mV to evoke whole-cell ICa. Voltage clamped cells were equilibrated for 15 min prior to experimentation. Membrane currents were recorded on an Axopatch 700A amplifier (Axon Instruments, Union City, Calif.), filtered at 1 kHz using a low-pass Bessel filter, digitized at 5 kHz and stored on a computer for subsequent analysis with Clampfit 9.0. Following equilibration, ICa was monitored in the presence and absence of KMUP-3 or KMUP-3 amine salt (1, 10, 100 μM). To ascertain whether PKG or ROCK signaling was involved in the KMUP-3-induced decreases in ICa, H9c2 cells were incubated for 15 min with the combination of KMUP-3 or KMUP-3 amine salt (10 μM) and PKG antagonist KT5823 (3 μM) or ROCK inhibitor Y-27632 (50 μM). All electrical recordings were performed at room temperature.

Regarding `Cn1c(=O)c2c(ncn2CCN2CCN(c3ccc([N+](=O)[O-])cc3)CC2)n(C)c1=O` [KMUP-3, 7-[2-[4-(4-nitrobenzene)piperazinyl]ethyl]-1,3-dimethylxanthine], in assay [1] (setting [3]), the “LVSP (left ventricular systolic pressure)” value is “dose-dependently increased”, the “MABP (mean arterial blood pressure)” value is recorded as “dose-dependently increased” and the dP/dt entry was “dose-dependently increased”. For the same compound, in assay [1] (setting [4]), the HR entry was “dose-dependently increased” and the MABP result is “dose-dependently increased”. Besides, in assay [1] (setting [5]), the HR result is reported as “dose-dependently increased” and the MABP entry is given as “dose-dependently increased”. Besides, the “Translocation of PKCα from cytosol to membrane” value in the assay with PKCα is “significantly increased”. For the same compound, in the assay on eNOS, the eNOS expression result was “increased”. Also, the p-eNOS expression entry in assay [2] is “increased”. Moreover, in the assay on cAMP, the cAMP entry was “increased”. Also, the “Inward currents (Ca2+ entry)” value in the assay with L-type Ca2+ channels was “concentration-dependently reduced”.
